This note sets out measurements from US20200038514A1, “FOLATE CONJUGATE FOR USE IN TARGETING TUMOR ASSOCIATED MACROPHAGES” (ENDOCYTE, INC., priority 2016, published 2020).

The test system of one data set is ID8-C115 ascites tumors. Nature of the data set: Conjugate 5 versus EC1456 against various stages of ID8-C115 ascites tumors, survival. The data set is classed as in vivo, mice. From the text:
Mouse ascites tumors were generated by intra-peritoneal implantation of cultured cells at 5×10^6 in C57BL/6 mice.
In a first experiment (P-1836), all treatment started 7 days after the tumors were implanted. The mice were intravenously dosed with Conjugate 5 at 0.1 μmol/kg twice-per-week for a total of 6 doses (BIW×3). […] In a second experiment (P-1846), Conjugate 5 treatment started 21 days after the tumors were implanted. The mice were intravenously dosed with Conjugate 5 at 0.1 μmol/kg for 3 consecutive days each week for 3 weeks (D0-2×3, 9 doses). […] In a third experiment (P-1861), Conjugate 5 treatment started 35 days after the tumors were implanted. The mice were intravenously dosed with Conjugate 5 at 0.3 μmol/kg once-a-week for 2 consecutive weeks (SIW×2, 2 doses). […] In a fourth experiment (P-1836), Conjugate 5 treatment started 43 days after the tumors were implanted. The mice were intravenously dosed with Conjugate 5 at 0.3 μmol/kg once-a-week for 2 consecutive weeks (SIW×2, 2 doses). […] All mice were weighed 3 times/week and assessed for any clinical sign of swollen bellies indicative of ascites formation and for evidence of toxicity including respiratory distress, mobility, weight loss, diarrhea, hunched posture, and failure to eat. Once the animals developed ascites, they were monitored daily and euthanized when ascites became severe (rounded and walking on tip toes).

Data set [1] deals with 4T1p tumor (FRα-negative). Kind of data set: Single-agent activity in vivo, 4T1p mammary tumors. Also noted: species or system mice. The settings on record: 0.2 μmol/kg i.v., BIW×3 doses. From the text: (§1) Female Balb/c mice (4T1p, 4T1-C12) were purchased from Envigo (Indianapolis, Ind.) and used when they reached 6-8 weeks of age. The mice were fed a folate-deficient diet (TestDiet, St. Louis, Mo.) on the day of arrival.
(§2) Solid tumors in Balb/c mice were generated by subcutaneous implantation of cultured cells at 5×10^5 (4T1p) and 2×10^6 (4T1-C12) per animal in the mammary region.
(§3) Starting on day 0, mice with mammary 4T1p (˜78.3±12.1 mm^3) and 4T1-C12 (˜70.1±14.1 mm^3) were scheduled to receive Conjugate 5 at 200 nmol/kg, biweekly for two weeks. 4T1p tumor bearing mice received a total of 3 doses only and 4T1-C12 tumor bearing mice received a total of 4 doses as planned. Mice were weighed and measured for tumor size 3 times a week. The tumor volumes were calculated by the following formula: V=0.5×a×b^2, where a is the longest axis across the tumor, and b is the shorter axis perpendicular to a. The animals were euthanized when the tumor volume reached ˜1500 mm^3. Mice were also monitored closely for the evidence of toxicity such as respiratory distress, mobility, weight loss, diarrhea, hunched posture, and failure to eat. The last Conjugate 5 dose in the 4T1p tumor-bearing mice was skipped due to weight loss.

Another data set has as its target T1, folate receptor (Homo sapiens, UniProt P15328).
T1 construct: FR-positive KB cells were seeded in 24-well Falcon plates and allowed to form adherent monolayers; endogenous in cells; host or cells: KB cells
Kind of data set: Relative affinity assay ([3H]FA displacement on KB cells). The class given is binding.

A further data set has as its system IGROV1 cells. Nature of the data set: Clonogenic assay, IGROV1. The class given is cell-based, human. The settings on record: 2 hour exposure, 9-day chase. On the procedure: IGROV1 cells seeded in 6-well plates (1000 cells/well) were exposed for 2 hours to Conjugate 5 at 1, 10, and 100 nM and followed by a 9-day chase in drug-free medium. Afterwards, the cells were washed with PBS and fixed for 5 minutes in a 3:1 methanol:acetic acid solution. The cells were then stained with 0.5% crystal violet/methanol solution for 15 minutes and washed with tap water. After a drying step, the colonies were photographed and counted using the ImageJ software.
Afterwards, the cells were washed with PBS and fixed for 5 minutes in a 3:1 methanol:acetic acid solution. The cells were then stained with 0.5% crystal violet/methanol solution for 15 minutes and washed with tap water. After a drying step, the colonies were photographed and counted using the ImageJ software.

Data set [2] deals with 4T1-C12 tumor (FRα-positive). Kind of data set: Single-agent activity in vivo, 4T1-C12 mammary tumors. The following applies: 0.2 μmol/kg i.v., BIW×4 doses. Also noted: species or system mice.
Source text: as §1, §2, §3

The structures appear in SMILES notation.

T1 sequence (P15328 25-234): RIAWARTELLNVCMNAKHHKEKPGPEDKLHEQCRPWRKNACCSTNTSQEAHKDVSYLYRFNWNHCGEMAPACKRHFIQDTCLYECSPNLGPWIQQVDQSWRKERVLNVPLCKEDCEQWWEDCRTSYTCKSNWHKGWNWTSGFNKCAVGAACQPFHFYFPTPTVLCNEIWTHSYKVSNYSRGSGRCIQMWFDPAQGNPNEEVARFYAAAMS
Experimental for folate receptor: FR-positive KB cells were seeded in 24-well Falcon plates and allowed to form adherent monolayers (>90% confluent) overnight in FFRPMI/HIFCS. Spent incubation medium was replaced with FFRPMI supplemented with 10% HIFCS and containing 100 nmol/L of [^3H]FA in the absence and presence of increasing concentrations of unlabeled FA or the test conjugate. Cells were incubated for 1 hour at 37° C. and then rinsed thrice with 0.5 mL PBS. Five hundred microliters of 1% SDS in PBS were added to each well; after 5 min, cell lysates were collected, transferred to individual vials containing 5 mL of scintillation cocktail, and then counted for radioactivity.
Cells exposed to only the [^3H]FA in FFRPMI (no competitor) were designated as negative controls, whereas cells exposed to the [^3H]FA plus 1 mmol/L unlabeled FA served as positive controls. Disintegrations per minute (DPM) measured in the latter samples (representing nonspecific binding of label) were subtracted from the DPM values from all samples.

As to `C=C1C[C@H]2C=Nc3cc(OCCCCCOc4cc(N)c(C(=O)N5CC(=C)C[C@H]5C5OCCN5C(=O)OCC(C)(C)SSCCC(=O)NCCNC(=O)CCOCCOCCOCCOCCNC(=O)CCN5C(=O)CC(SC[C@H](NC(=O)[C@H](CC(=O)O)NC(=O)[C@H](CC(=O)O)NC(=O)[C@H](CCCNC(=N)N)NC(=O)[C@H](CC(=O)O)NC(=O)CC[C@H](NC(=O)c6ccc(NCc7cnc8nc(N)[nH]c(=O)c8n7)cc6)C(=O)O)C(=O)O)C5=O)cc4OC)c(OC)cc3C(=O)N2C1` (stereo partly shown) [Conjugate 5], the median survival time was around 77 days post tumor implant in the data set with ID8-C115 ascites tumors (7-day-old tumors, Conjugate 5 0.1 mol/kg BIW×6 doses, EC1456 2 mol/kg BIW×6 doses, untreated ~46 days); around 76 days in the data set with ID8-C115 ascites tumors (21-day-old tumors, Conjugate 5 0.1 mol/kg D0-2×3, 9 doses, EC1456 2 μmol/kg D0-2×, 9 doses (two remaining animals), untreated ~46 days); around 64 days post tumor implant in the data set on ID8-C115 ascites tumors (35-day-old tumors, Conjugate 5 0.3 μmol/kg SIW×2, 2 doses, EC1456 2 mol/kg D0-2×2, 4 doses, untreated ~42 days); around 57 days post tumor implant in the data set with ID8-C115 ascites tumors (43-day-old tumors, Conjugate 5 0.3 μmol/kg SIW×2, 2 doses, EC1456 2 mol/kg D0-2×1, 3 doses, untreated ~46 days). The toxicity observed result in the data set with ID8-C115 ascites tumors (21-day-old tumors, Conjugate 5 0.1 mol/kg D0-2×3, 9 doses, EC1456 2 μmol/kg D0-2×, 9 doses) is given as “mild ataxia”. The body weight result in data set [1] and in data set [2] was “significant weight loss” throughout. Besides, the complete responders entry in data set [1] is recorded as “no complete responders”. For the same compound, the “tumor sensitivity / tumor growth” value in data set [1] is “partial sensitivity”. Also, on folate receptor, the “relative binding affinity toward the folate receptor, fold lower than that of folic acid” value was around 1.9 fold. Moreover, the clonogenic activity entry with IGROV1 cells (1, 10, 100 nM) was “potent activity at all concentrations”. Also, the “clonogenic activity, comparison Conjugate 5 and EC1456” value with IGROV1 cells (1, 10, 100, 1000 nM) is on record as “potent activity at all concentrations tested”. In addition, in the data set on IGROV1 cells (1 and 10 nM, excess folic acid), the “clonogenic anti-tumor activity in the presence of excess folic acid” value is listed as “significantly reduced”.
